The test system of one experiment is A375 cells. As to the kind of experiment: Inhibition of cancer cell growth, MTT or MTS assay, A375. As to conditions: Homo sapiens, A-375, 72 h incubation. The class given is cell-based. As for the experimental part:
(§1) Inhibition of cell growth by compounds was measured using MTT or MTS assay. Tumor cell lines were purchased from ATCC (American Type Culture Collection, Manassas, Va.). All cell lines were maintained in RPMI 1640 (Hyclone) supplemented with 10% fetal bovine serum (FBS, Hyclone), glutamine (2 mM, Hyclone), and antibiotics (penicillin 100 U/mL and streptomycin 50 μg/mL) at 37° C. in a humidified atmosphere of 5% CO2 in air. Taxol (as a positive control, Sigma) and compounds were dissolved in DMSO (Sigma), and the final concentration of DMSO in the medium was 1%. Tumor cells were plated in 96-well plates at densities of about 2000 (A375) or 4000 (A549 and Colo205) cells/well of a 96-well plate and allowed to adhere/grow for 24 h. They were then treated with various concentrations of drug and incubated for 72 h. For MTT method, medium was then removed by inverting and tapping the plates. 100 μL of MTT (0.5 mg/ml) was added to each well followed by an incubated at 37° C. for 4 h. MTT was then removed and 200 μL of DMSO was added to each well, and the ODs at 570 nm were measured after a 5 second shaking cycle in a 96-well spectrophotometer. For MTS method, 20 μL MTS (CellTiter 96 Aqueous One Solution, Promega) was added to each well followed by an incubated at 37° C. for 2-4 h, solutions were then directly put in a 96-well spectrophotometer, and the ODs at 490 nm were measured.
(§2) All concentrations of compounds were tested in triplicate and controls were averaged over 4 wells. IC50 was calculated by plotting the concentration of compound vs the percentage of inhibition in treated wells using GraphPad Prism 5. […] The scale utilized in Tables 7-9 is as follows: +++ less than 1000 nM; ++ between 1000 nM and 5000 nM; and + greater than 5000 nM. The scale utilized in […]
A general note: Tetrazolium dyes change colour on reduction, which living cells bring about.

The next experiment deals with A549 cells. As to the kind of experiment: Inhibition of cancer cell growth, MTT or MTS assay, A549. The class given is cell-based. As to conditions: Homo sapiens, 72 h incubation. The protocol:
as §1, §2

A further experiment has as its target T1, KDR (VEGFR2) (Homo sapiens, UniProt P35968).
T1 construct: purchased Invitrogen
The experiment in a line: Z'-LYTE kinase inhibition assay against KDR. The class given is biochemical. Particulars: % inhibition at 1 μM, Z'-LYTE method. The protocol:
Inhibitory activities of compounds against KDR (VEGFR2) were also measured by Invitrogen using Z′-LYTE® Method as described above with the following modification. The 2×KDR (VEGFR2)/Tyr 01 mixture is prepared in 50 mM HEPES pH 7.5, 0.01% BRIJ-35, 10 mM MgCl2, 1 mM EGTA. The final 10 μL Kinase Reaction consists of 0.5-11.7 ng KDR (VEGFR2) and 2 μM Tyr 01 in 50 mM HEPES pH 7.5, 0.01% BRIJ-35, 10 mM MgCl2, 1 mM EGTA. After the 1 hour Kinase Reaction incubation, 5 μL of a 1:256 dilution of Development Reagent B is added.
The scale utilized in Table 6 is as follows: +++ less than 100 nM; and ++ greater than 100 nM

The target of a further experiment is T2, BRAF V600E (Homo sapiens, UniProt P15056, V600E).
T2 construct: purchased Invitrogen
As to the kind of experiment: Z'-LYTE kinase inhibition assay against BRAF V600E. The class given is biochemical. As to conditions: % inhibition at 1 μM, Z'-LYTE method. The protocol: Inhibitory activities Inhibitory activities of compounds against BRAF, and BRAF V600E were measured by Invitrogen using Z′-LYTE® Method as briefly described in the following. 4× Test compounds are dissolved in 1% DMSO. […] ATP solutions are diluted to a 4×ATP working concentration in Kinase Buffer (50 mM HEPES pH 7.5, 0.01% BRIJ-35, 10 mM MgCl2, 1 mM EGTA). Reaction started by 30-second shaking of mixture consisting of 2.5 μL 4× test compound, […] and 2.5 μL 4×ATP Solution on Bar-coded Corning, low volume NBS, black 384-well plate (Corning Cat. #3676). Then the mixture was incubated for 60-minute at room temperature for the kinase reaction, followed by addition of 5 μL of a 1:1024 dilution of development reagent A and 30-second plate shake. The mixture was then incubated for another 60-minute at room temperature for development reaction. Fluorescence was read by plate reader. IC50 was calculated by plotting the concentration of compound vs the percentage of inhibition in treated wells using GraphPad Prism 5.
Table 2 and 3 show % inhibition at 1 μM of several compounds of the invention against BRAF and BRAF V600E, respectively, using Z′-LYTE® method.
The scale utilized in Table 4 is as follows: +++ less than 100 nM; and ++ greater than 100 nM.

Each structure is given as a SMILES string.

T1 sequence (P35968 20-1356): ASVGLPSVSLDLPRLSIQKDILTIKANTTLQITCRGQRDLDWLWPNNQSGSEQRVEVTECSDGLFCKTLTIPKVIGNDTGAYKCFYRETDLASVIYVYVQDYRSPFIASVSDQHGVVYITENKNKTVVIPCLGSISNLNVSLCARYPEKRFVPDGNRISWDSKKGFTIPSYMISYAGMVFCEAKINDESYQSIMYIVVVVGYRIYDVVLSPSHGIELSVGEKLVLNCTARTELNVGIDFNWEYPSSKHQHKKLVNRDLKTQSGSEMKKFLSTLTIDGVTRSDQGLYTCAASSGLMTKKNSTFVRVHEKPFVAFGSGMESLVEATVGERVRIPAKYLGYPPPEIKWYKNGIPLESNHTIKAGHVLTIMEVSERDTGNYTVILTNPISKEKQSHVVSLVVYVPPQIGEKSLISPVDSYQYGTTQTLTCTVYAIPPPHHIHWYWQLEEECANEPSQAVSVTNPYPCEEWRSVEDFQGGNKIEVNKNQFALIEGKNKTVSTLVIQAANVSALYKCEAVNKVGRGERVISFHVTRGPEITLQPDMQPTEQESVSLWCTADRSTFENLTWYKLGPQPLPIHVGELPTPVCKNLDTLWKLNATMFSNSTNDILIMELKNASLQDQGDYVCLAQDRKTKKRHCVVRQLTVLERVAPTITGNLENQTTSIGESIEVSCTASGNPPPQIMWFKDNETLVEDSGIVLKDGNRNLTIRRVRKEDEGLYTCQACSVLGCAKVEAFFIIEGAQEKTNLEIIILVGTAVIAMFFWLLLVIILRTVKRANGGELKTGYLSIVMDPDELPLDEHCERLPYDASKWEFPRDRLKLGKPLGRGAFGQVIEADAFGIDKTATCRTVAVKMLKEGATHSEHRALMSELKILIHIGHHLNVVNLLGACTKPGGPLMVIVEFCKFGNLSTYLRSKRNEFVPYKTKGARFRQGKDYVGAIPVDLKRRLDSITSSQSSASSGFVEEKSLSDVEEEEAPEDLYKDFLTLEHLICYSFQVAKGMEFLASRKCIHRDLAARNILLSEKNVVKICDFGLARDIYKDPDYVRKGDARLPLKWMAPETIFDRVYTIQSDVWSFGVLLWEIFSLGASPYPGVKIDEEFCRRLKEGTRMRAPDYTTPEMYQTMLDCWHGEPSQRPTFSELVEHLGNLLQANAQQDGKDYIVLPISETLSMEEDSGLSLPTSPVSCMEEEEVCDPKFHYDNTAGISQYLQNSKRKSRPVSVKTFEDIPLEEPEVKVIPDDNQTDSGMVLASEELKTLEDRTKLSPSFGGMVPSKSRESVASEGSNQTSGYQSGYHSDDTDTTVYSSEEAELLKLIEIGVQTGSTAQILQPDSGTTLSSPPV
T2 sequence (P15056 whole entry V600E): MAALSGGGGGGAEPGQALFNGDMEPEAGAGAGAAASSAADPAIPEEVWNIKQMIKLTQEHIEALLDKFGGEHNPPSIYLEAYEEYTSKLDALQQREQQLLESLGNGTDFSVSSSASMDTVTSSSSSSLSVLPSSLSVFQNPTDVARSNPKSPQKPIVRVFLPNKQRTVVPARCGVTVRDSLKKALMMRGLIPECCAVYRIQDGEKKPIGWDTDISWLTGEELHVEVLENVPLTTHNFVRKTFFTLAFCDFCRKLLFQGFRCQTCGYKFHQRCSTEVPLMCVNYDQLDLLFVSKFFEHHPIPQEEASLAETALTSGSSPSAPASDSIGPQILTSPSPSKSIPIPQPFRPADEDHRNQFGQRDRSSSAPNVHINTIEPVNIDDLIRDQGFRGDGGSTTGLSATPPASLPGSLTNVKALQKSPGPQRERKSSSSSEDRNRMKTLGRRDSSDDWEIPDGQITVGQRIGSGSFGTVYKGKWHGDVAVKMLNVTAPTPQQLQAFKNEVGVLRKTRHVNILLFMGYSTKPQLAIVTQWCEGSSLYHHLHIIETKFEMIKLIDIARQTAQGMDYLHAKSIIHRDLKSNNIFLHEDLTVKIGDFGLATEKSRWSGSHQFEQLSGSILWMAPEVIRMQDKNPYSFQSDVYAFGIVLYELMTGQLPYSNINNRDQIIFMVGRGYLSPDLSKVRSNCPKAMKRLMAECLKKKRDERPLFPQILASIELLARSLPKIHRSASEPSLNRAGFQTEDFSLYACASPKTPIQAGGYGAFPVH

Broadly, the IC50 is the concentration at which inhibition is half-maximal. Lower therefore signals greater potency. `O=C(Nc1ccc(C(=O)c2ccc3ncc(N4CCNCC4)nc3c2)c(F)c1)c1cccc(C(F)(F)F)c1` [Compound C42, N-(3-fluoro-4-(3-(piperazin-1-yl)quinoxaline-6-carbonyl)phenyl)-3-(trifluoromethyl)benzamide] displayed an IC50 in the experiment on A375 cells of 1 to 5 µM.

The inhibition is the share of the control response that was lost under treatment. A high value points to a strong effect. `N#Cc1ccc(NC(=O)Nc2ccc(C(=O)c3ccc4ncc(N5CCOCC5)nc4c3)cc2)cc1C(F)(F)F` [Compound C15, 1-(4-cyano-3-(trifluoromethyl)phenyl)-3-(4-(3-morpholinoquinoxaline-6-carbonyl)phenyl)urea]: the IC50 in the experiment with A549 cells and in the experiment on A375 cells was 1 to 5 µM in each case. Moreover, the values for the inhibition at 1 µM against KDR (VEGFR2) and at BRAF V600E were 70 to 89% and < 70%, respectively.

Take `O=C(Nc1ccc(C(=O)c2ccc3ncc(N4CCNCC4)nc3c2)c(F)c1)c1cccc(Cl)c1` [Compound C41, 3-chloro-N-(3-fluoro-4-(3-(piperazin-1-yl)quinoxaline-6-carbonyl)phenyl)benzamide]: the IC50 in the experiment on A375 cells was < 1 µM.

In the case of `Cn1cc(NC(=O)Nc2ccc(C(=O)c3ccc4ncc(N5CCNCC5)nc4c3)c(F)c2)cn1` [Compound C32, 1-(3-fluoro-4-(3-(piperazin-1-yl)quinoxaline-6-carbonyl)phenyl)-3-(1-methyl-1H-pyrazol-4-yl)urea], the inhibition at 1 µM against KDR (VEGFR2) is < 70%; against BRAF V600E it was 70 to 89%.

Turning to `O=C(Nc1ccc(C(=O)c2ccc3ncc(N4CCOCC4)nc3c2)c(F)c1)c1ccc(Cl)c(C(F)(F)F)c1` [Compound C36, 4-chloro-N-(3-fluoro-4-(3-morpholinoquinoxaline-6-carbonyl)phenyl)-3-(trifluoromethyl)benzamide], the IC50 in the experiment with A375 cells was > 5 µM.

`O=C(Nc1ccc(C(=O)c2ccc3ncc(N4CCNCC4)nc3c2)c(F)c1)c1ccc(Cl)cc1` [Compound C40, 4-chloro-N-(3-fluoro-4-(3-(piperazin-1-yl)quinoxaline-6-carbonyl)phenyl)benzamide] showed an IC50 in the experiment with A375 cells of 1 to 5 µM.

`O=C(Nc1ccc(C(=O)c2ccc3ncc(N4CCOCC4)nc3c2)cc1)Nc1ccc(Cl)c(C(F)(F)F)c1` [Compound C07, 1-(4-chloro-3-(trifluoromethyl)phenyl)-3-(4-(3-morpholinoquinoxaline-6-carbonyl)phenyl)urea]: the IC50 in the experiment with A549 cells and in the experiment on A375 cells was 1 to 5 µM throughout. Moreover, the inhibition at 1 µM at KDR (VEGFR2) is 70 to 89%; against BRAF V600E, < 70%.

The molecule `O=C(Nc1ccc(C(=O)c2ccc3ncc(N4CCOCC4)nc3c2)c(F)c1)Nc1ccc(Cl)c(C(F)(F)F)c1` [Compound C25] came in with an IC50 in the experiment on A549 cells of 1 to 5 µM. Further, the inhibition at 1 µM on KDR (VEGFR2) and against BRAF V600E was < 70% in each case.

`O=C(Nc1cccc(F)c1)Nc1ccc(C(=O)c2ccc3ncc(N4CCOCC4)nc3c2)c(F)c1` [Compound C22, 1-(3-fluoro-4-(3-morpholinoquinoxaline-6-carbonyl)phenyl)-3-(3-fluorophenyl)urea]: the IC50 in the experiment on A549 cells is > 5 µM. The inhibition at 1 µM on KDR (VEGFR2) and against BRAF V600E was < 70% each time.

For the molecule `O=C(Nc1ccc(C(=O)c2ccc3ncc(N4CCOCC4)nc3c2)cc1)Nc1ccc(F)c(C(F)(F)F)c1` [Compound C06, 1-(4-fluoro-3-(trifluoromethyl)phenyl)-3-(4-(3-morpholinoquinoxaline-6-carbonyl)phenyl)urea], the IC50 in the experiment on A549 cells and with A375 cells was 1 to 5 µM throughout. Besides, the inhibition at 1 µM is 70 to 89% at KDR (VEGFR2) and < 70% against BRAF V600E.

For the molecule `O=C(Nc1ccc(C(=O)c2ccc3ncc(N4CCOCC4)nc3c2)c(F)c1)c1cccc(Cl)c1` [Compound C37, 3-chloro-N-(3-fluoro-4-(3-morpholinoquinoxaline-6-carbonyl)phenyl)benzamide], the IC50 in the experiment with A375 cells was > 5 µM.

`O=C(Nc1ccc(C(=O)c2ccc3ncc(N4CCOCC4)nc3c2)cc1)Nc1ccc(C(F)(F)F)cc1` [Compound C08, 1-(4-(3-morpholinoquinoxaline-6-carbonyl)phenyl)-3-(4-(trifluoromethyl)phenyl)urea]: the IC50 in the experiment with A549 cells is 1 to 5 µM; in the experiment on A375 cells, < 1 µM. Moreover, the inhibition at 1 µM on KDR (VEGFR2) and against BRAF V600E was < 70% throughout.

`O=C(Nc1ccc(C(=O)c2ccc3ncc(N4CCOCC4)nc3c2)c(F)c1)c1cccc(C(F)(F)F)c1` [Compound C38, N-(3-fluoro-4-(3-morpholinoquinoxaline-6-carbonyl)phenyl)-3-(trifluoromethyl)benzamide]: the IC50 in the experiment on A375 cells lay within 1 to 5 µM.

Molecule `O=C(Nc1ccc(C(=O)c2ccc3ncc(N4CCNCC4)nc3c2)c(F)c1)c1cccc(F)c1` [Compound C39, 3-fluoro-N-(3-fluoro-4-(3-(piperazin-1-yl)quinoxaline-6-carbonyl)phenyl)benzamide] registered an IC50 in the experiment on A375 cells of 1 to 5 µM.

Turning to `N#Cc1ccc(NC(=O)Nc2ccc(C(=O)c3ccc4ncc(N5CCOCC5)nc4c3)c(F)c2)cc1C(F)(F)F` [Compound C18, 1-(4-cyano-3-(trifluoromethyl)phenyl)-3-(3-fluoro-4-(3-morpholinoquinoxaline-6-carbonyl)phenyl)urea], the IC50 with A549 cells and with A375 cells was 1 to 5 µM each time. In addition, the inhibition at 1 µM at KDR (VEGFR2) and against BRAF V600E was 70 to 89% in each case.

Regarding `O=C(Nc1ccc(C(=O)c2ccc3ncc(N4CCOCC4)nc3c2)c(F)c1)c1ccc(Cl)cc1` [Compound C35, 4-chloro-N-(3-fluoro-4-(3-morpholinoquinoxaline-6-carbonyl)phenyl)benzamide], in the experiment on A375 cells, the IC50 is > 5 µM.

`N#Cc1cnc2ccc(C(=O)c3ccc(NC(=O)Nc4ccc(Cl)c(C(F)(F)F)c4)cc3F)cc2n1` [Compound C30, 1-(4-chloro-3-(trifluoromethyl)phenyl)-3-(4-(3-cyanoquinoxaline-6-carbonyl)-3-fluorophenyl)urea]: the IC50 in the experiment on A549 cells is > 5 µM. In addition, the inhibition at 1 µM at KDR (VEGFR2) and at BRAF V600E was < 70% each time.

Consider `Cc1cc(NC(=O)Nc2ccc(C(=O)c3ccc4ncc(N5CCNCC5)nc4c3)c(F)c2)no1` [Compound C33, 1-(3-fluoro-4-(3-(piperazin-1-yl)quinoxaline-6-carbonyl)phenyl)-3-(5-methylisoxazol-3-yl)urea], for which the IC50 with A375 cells fell in the range of 1 to 5 µM. Further, the inhibition at 1 µM against KDR (VEGFR2) is < 70%; on BRAF V600E, > 89%.

`O=C(Nc1ccc(C(=O)c2ccc3ncc(N4CCOCC4)nc3c2)c(F)c1)c1cccc(F)c1` [Compound C34, 3-fluoro-N-(3-fluoro-4-(3-morpholinoquinoxaline-6-carbonyl)phenyl)benzamide]: the half-maximal inhibitory concentration (IC50) with A375 cells is > 5 µM.

As to `O=C(Nc1ccc(F)cc1)Nc1ccc(C(=O)c2ccc3ncc(N4CCOCC4)nc3c2)c(F)c1` [Compound C23, 1-(3-fluoro-4-(3-morpholinoquinoxaline-6-carbonyl)phenyl)-3-(4-fluorophenyl)urea], in the experiment with A549 cells, the IC50 was > 5 µM. In addition, the inhibition at 1 µM against KDR (VEGFR2) is < 70%; at BRAF V600E, 70 to 89%.

With `O=C(Nc1ccc(C(=O)c2ccc3ncc(N4CCNCC4)nc3c2)c(F)c1)c1ccc(Cl)c(C(F)(F)F)c1` [Compound C43, 4-chloro-N-(3-fluoro-4-(3-(piperazin-1-yl)quinoxaline-6-carbonyl)phenyl)-3-(trifluoromethyl)benzamide], the IC50 in the experiment on A375 cells was < 1 µM.

(Values after patent publication US10047059B2, “Substituted quinoxalines for inhibiting kinase activity” (NEUPHARMA, INC., priority 2012, dated 2018).)
